The values that follow come from PubChem BioAssay (NCI).

What all share (assay): NCI tumour cell line growth inhibition, 48 h
Assay [1] concerns SW-620 colon.
Assay [2] relates to MDA-MB-435.
The subject of assay [3] is UACC-62 melanoma.
The subject of assay [4] is HCC-2998 colon.
Assay [5] deals with UO-31 renal.
The test system of assay [6] is SF-295 CNS.
The test system of assay [7] is EKVX NSCLC.
The test system of assay [8] is SNB-19 CNS.
Assay [9] concerns SNB-75 CNS.

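Tested at 5 concentrations; 48 h exposure; 96-well plates; endpoints linearly interpolated, else capped at highest concentration. The concentration for 50% growth inhibition is given as GI50. TGI is the concentration that stops growth completely.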 A value given as a limit tells only on which side of the number the result lay.

In the case of `O=c1cc(-c2ccccc2)oc2cc(OCCCCCN3CCOCC3)cc(O)c12`, the GI50 in [1] is greater than 100 µM; in [2], greater than 100 µM; in assay [3] it was 95.7 µM; in [5] it was 32.7 µM; in assay [6], 40.2 µM; in assay [7], greater than 100 µM. For the same compound, the figures for the GI50 in assay [8] and in [9] were 23.9 µM and 3.64 µM, respectively. Moreover, the TGI in assay [1] is greater than 100 µM; in assay [2], greater than 100 µM; in [3], greater than 100 µM; in [4], 8.38 µM; in assay [5], greater than 100 µM; in assay [6], greater than 100 µM. Also, the TGI is greater than 100 µM in assay [7], 71.6 µM in [8] and 15.2 µM in [9].
Turning to `Nn1c(-c2cccc(Cl)c2)nc2ccccc2c1=O`, the TGI in [1], in [3], in assay [4], in assay [5], in assay [6] and in [7] was greater than 100 µM each time. The TGI in assay [8] and in assay [9] was greater than 100 µM throughout.
On to `Cc1ccc(C2[C@H]3C(=O)N(c4ccc(Cc5ccc(N6C(=O)[C@@H]7ON(c8ccccc8)C(c8ccc(C)cc8)[C@@H]7C6=O)cc5)cc4)C(=O)[C@H]3ON2c2ccccc2)cc1` (stereo not given in full), for which the TGI in assay [1], in assay [3], in assay [4], in assay [5], in assay [6] and in [9] was greater than 100 µM throughout.
For the compound `C[C@]12Cc3conc3C(O)=C1CC[C@@H]1C2CC[C@@]2(C)C1CC[C@]2(C)O` (stereo not given in full), the TGI in assay [1] is greater than 100 µM; in [3], 29.2 µM; in assay [4], 62.1 µM; in assay [5], 50.3 µM; in [6], 74.3 µM; in assay [7], 87.6 µM. The TGI in assay [8] is greater than 100 µM; in [9] it was 32.4 µM.
With `C[C@]12CC(C=O)C(=O)C(O)=C1CC[C@@H]1C2CC[C@@]2(C)C1CC[C@]2(C)O` (stereo not given in full), the TGI in assay [1] was greater than 100 µM; in assay [3] it was 36.5 µM; in assay [4] it was 31.1 µM; in [5], 51.1 µM; in assay [6], 66.6 µM; in [7] it was 96 µM. Also, the results for the TGI in assay [8] and in [9] were 63.5 µM and 45.9 µM, respectively.
Take `CC(C)(C)C(=O)c1c(C(F)(F)F)n([O-])c2cc(Cl)c(Cl)cc2[n+]1=O`: the GI50 in [1] was 0.244 µM; in assay [2], 0.515 µM; in [3] it was 1.46 µM; in assay [4], 0.172 µM; in [5], 0.403 µM; in [6], 0.505 µM. The values for the GI50 in [7], in [8] and in [9] were 1.91 µM, 0.609 µM and 0.189 µM, respectively. The TGI in assay [1] came to 0.644 µM; in assay [2], 1.01 µM; in [3] it was 2.77 µM; in assay [4], 0.465 µM; in [5] it was 0.805 µM; in [6], 0.973 µM. Also, the TGI worked out at 3.4 µM in assay [7], 1.28 µM in assay [8] and 0.408 µM in assay [9].
For `Cc1cc(Cl)ccc1N=C1NC(=O)C(CC(=O)Nc2cccc(C)c2C)S1` (stereo not given), the TGI was greater than 100 µM in [1]; 71.3 µM in assay [3]; 65.1 µM in [4]; 51.5 µM in assay [5]; 81.2 µM in assay [6]; greater than 100 µM in assay [7]. The TGI was 68.3 µM in [8] and 48.8 µM in assay [9].
Turning to `CN(C)CC1C(=O)O[C@H]2[C@H]1CC/C(COC(=O)NCc1ccc(Cn3c(=O)sn(CCCI)c3=O)cc1)=C\CC[C@@]1(C)O[C@@H]21` (stereo not given in full), the GI50 in assay [1] was 0.998 µM; in [2], 1.13 µM; in [3] it was 1.28 µM; in assay [4] it was 7.56 µM; in [5], 0.775 µM; in [6], 7.43 µM. The GI50 is 3.19 µM in assay [7], 7.26 µM in [8] and 2.73 µM in assay [9]. Also, the TGI in assay [1] worked out at 2.09 µM; in assay [2] it was 2.73 µM; in assay [3], 3.97 µM; in [4], 15.4 µM; in assay [5] it was 1.52 µM; in assay [6], 14.5 µM. The TGI stood at 10.3 µM in [7], 14.2 µM in assay [8] and 9.51 µM in [9].
Regarding `Cc1cc2c3c([n+](C)c4ccc(F)cc4c3c1)-c1cc(F)ccc1N2C`, the GI50 was 13.5 µM in assay [1]; 13.7 µM in [2]; 3.99 µM in [4]; greater than 100 µM in [5]; 7.54 µM in [6]; 62.4 µM in [7]. Further, the results for the GI50 in [8] and in assay [9] were 4.13 µM and 11 µM, respectively. Further, the TGI was greater than 100 µM in assay [1]; 55 µM in assay [2]; 16.5 µM in [4]; greater than 100 µM in assay [5]; greater than 100 µM in [6]; greater than 100 µM in assay [7]. Further, the figures for the TGI in assay [8] and in [9] were greater than 100 µM and 41.5 µM, respectively.
Consider `COc1cc2c3c(n(CCN4CCOCC4)c(=O)c2cc1OC)-c1ccccc1C3=O`, for which the GI50 was 89.2 µM in assay [1]; greater than 100 µM in assay [2]; 56.8 µM in assay [3]; 33.8 µM in assay [4]; 63.3 µM in assay [5]; 34.6 µM in assay [6]. Moreover, the GI50 in assay [7], in assay [8] and in assay [9] was greater than 100 µM each time. Besides, the TGI in assay [1], in [2], in assay [3], in [4], in assay [5] and in assay [6] was greater than 100 µM in each case. The TGI in assay [7], in assay [8] and in assay [9] was greater than 100 µM throughout.
